Experimental data taken from article PMC4317639, “In Vitro Gender-Dependent Inhibition of Porcine Cytochrome P450 Activity by Selected Flavonoids and Phenolic Acids” (BioMed Research International, 2015).

Columns and labels:
porcine CYP2A = details: 16 μM compound; hepatic microsomes from male and female pigs; 200 μM coumarin
Experimental: (§1) Microsomes were prepared with a calcium aggregation method using Tris-EDTA homogenization buffer. Experiments were performed using pools of microsomes consisting of microsomes from two individual pigs. The total microsomal protein concentration was analyzed the same day using a commercially available kit (Bio-Rad Laboratories Inc., Hercules, CA, USA) according to the manufacturer's instructions. Microsomes were diluted to a protein concentration of 10 mg/mL and stored at −80°C until analysis.
(§2) Specific CYP450 activities were determined by incubating microsomes (diluted in 0.5 M potassium phosphate buffer (pH 7.4)) and adding 0.5 mM NADPH together with one of the following selective substrates (specific CYP450 target given in parentheses): 2 μM 7-ethoxyresorufin (CYP1A), 200 μM coumarin (CYP2A), 10 μM 7-benzyloxy-4-trifluoromethylcoumarin (CYP3A), and 200 μM p-nitrophenol (CYP2E1). For kinetic studies, concentrations of 7-ethoxyresorufin varied from 0.05 to 4 μM, concentrations of p-nitrophenol varied from 2.5 to 4000 μM, and concentrations of BFC varied from 0.1 to 150 μM. The corresponding metabolites were quantified by HPLC as previously described.
(§3) For quercetin, this concentration is approximately what can be found in liver of pigs fed a single dose of a quercetin enriched diet. The stock solutions of these compounds were prepared in methanol, and the final concentration of methanol was 0.1% in the incubation volumes. The same amount of methanol was added to the control incubations. Percentage inhibitions were calculated as differences between the activities in the control incubations (arbitrarily set to 100%) and in the presence of the specific compound.

porcine CYP2E1 = porcine CYP2E1 (Sus scrofa, UniProt P79383); test: Inhibition of CYP2E1 activity (p-nitrophenol hydroxylation) in porcine hepatic microsomes; type: in vitro ADME, pig; details: for effect on CYP2E1 activity: 16 μM compound
Chain of porcine CYP2E1 (P79383 whole entry): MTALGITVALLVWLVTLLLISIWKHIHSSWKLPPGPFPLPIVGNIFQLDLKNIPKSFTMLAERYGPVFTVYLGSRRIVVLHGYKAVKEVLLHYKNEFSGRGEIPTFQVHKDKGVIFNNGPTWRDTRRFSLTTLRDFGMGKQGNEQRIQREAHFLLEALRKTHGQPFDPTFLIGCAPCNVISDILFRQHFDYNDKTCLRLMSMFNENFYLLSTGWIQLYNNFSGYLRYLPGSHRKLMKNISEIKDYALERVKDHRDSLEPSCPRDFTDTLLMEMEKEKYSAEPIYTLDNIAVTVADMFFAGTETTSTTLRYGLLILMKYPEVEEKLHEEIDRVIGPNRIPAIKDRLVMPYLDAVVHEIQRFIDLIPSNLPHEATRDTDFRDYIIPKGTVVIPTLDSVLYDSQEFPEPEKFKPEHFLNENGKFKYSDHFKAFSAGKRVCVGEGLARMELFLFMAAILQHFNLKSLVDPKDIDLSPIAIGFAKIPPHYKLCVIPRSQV
Experimental: as §1
as §2, with “For kinetic studies, concentrations of 7-ethoxyresorufin varied from 0.05 to 4 μM, concentrations of p-nitrophenol varied from 2.5 to 4000 μM, and concentrations of BFC varied from 0.1 to 150 μM.” left out
as §3
(§4) For that microsomes were preincubated with the tested compound in the presence of NADPH for 5 min (CYP1A, CYP3A) or 15 min (CYP2E1) at 37°C before the addition of specific substrate. […] The incubation time and the amount of the microsomal protein were in the linear range for the rate of metabolite formation. All measurements were performed in duplicate.
(§5) Kinetic parameters (Michaelis-Menten constant K m, maximal velocity of the reaction V max, and dissociation constant for inhibitor binding K i) were estimated by fitting data to the Michaelis-Menten equation using GraphPad Prism (version 4.0 for Windows, GraphPad Software (San Diego, California, USA)). Visual inspection of the plots was used to estimate whether inhibition degree was affected by inclusion of the preincubation step.

porcine CYP1A = test: Inhibition of CYP1A activity (7-ethoxyresorufin O-deethylation) in porcine hepatic microsomes; type: in vitro ADME, pig; details: for effect on CYP1A activity: 16 μM compound, hepatic microsomes from male and female pigs, 2 μM 7-ethoxyresorufin; for effect of a preincubation step on inhibition of CYP1A: 5 min preincubation with NADPH at 37°C, male and female pigs; for effect of a preincubation step on inhibition of CYP1A / Ki: inhibitor 16, 32, 128 μM; for Ki: 7-ethoxyresorufin 0.1-4 μM
Experimental: as §1
as §2, with “For kinetic studies, concentrations of 7-ethoxyresorufin varied from 0.05 to 4 μM, concentrations of p-nitrophenol varied from 2.5 to 4000 μM, and concentrations of BFC varied from 0.1 to 150 μM.” left out
as §3, §4, §5

porcine CYP3A = test: Inhibition of CYP3A activity (7-benzyloxy-4-trifluoromethylcoumarin O-dealkylation) in porcine hepatic microsomes; type: in vitro ADME, pig; details: for effect on CYP3A activity: 16 μM compound, hepatic microsomes from male and female pigs, 10 μM BFC; for reversibility of CYP3A inhibition (effect of a preincubation step): 5 min preincubation with NADPH at 37°C, male and female pigs; for Ki: pig, inhibitor 16, 32, 128 μM, BFC 0.1-150 μM
Experimental: as §1
as §2, with “For kinetic studies, concentrations of 7-ethoxyresorufin varied from 0.05 to 4 μM, concentrations of p-nitrophenol varied from 2.5 to 4000 μM, and concentrations of BFC varied from 0.1 to 150 μM.” left out
as §3, §4, §5

[1] = hepatic microsomes from male and female pigs, 200 μM p-nitrophenol
[2] = pig, pH 7.4, hepatic microsomes from female pigs
[3] = pig, pH 7.4, hepatic microsomes from male pigs
[4] = hepatic microsomes from female pigs

| effect on CYP1A activity (porcine CYP1A) | Compound | effect on CYP2A activity (porcine CYP2A) | effect on CYP2E1 activity (porcine CYP2E1; [1]) | effect on CYP3A activity (porcine CYP3A) | also measured |
| --- | --- | --- | --- | --- | --- |
| did not alter activity | O=C(O)/C=C/c1ccc(O)c(O)c1 [caffeic acid] | did not alter activity | did not alter activity | did not alter activity | – |
| – | O=C(O)c1cc(O)c(O)c(O)c1 [gallic acid] | – | did not alter activity | did not alter activity | – |
| – | COc1cc(-c2oc3cc(O)cc(O)c3c(=O)c2O)ccc1O [isorhamnetin] | did not affect | did not affect | decreased | effect of a preincubation step on inhibition of CYP1A (porcine CYP1A): did not affect; Ki (porcine CYP1A; [2]): 10.8 ± 2.8 µM; Ki (porcine CYP1A; [3]): 99.9 ± 77.6 µM; reversibility of CYP3A inhibition (effect of a preincubation step) (porcine CYP3A): reversible inhibition; Ki (porcine CYP3A; pH 7.4, hepatic microsomes from female pigs): 93.7 ± 61.3 µM; Ki (porcine CYP3A; pH 7.4, hepatic microsomes from male pigs): 71.2 ± 20.2 µM |
| – | O=c1c(O)c(-c2cc(O)c(O)c(O)c2)oc2cc(O)cc(O)c12 [myricetin] | did not affect | did not affect | decreased | effect of a preincubation step on inhibition of CYP1A (porcine CYP1A): did not affect; Ki (porcine CYP1A; [2]): 4.4 ± 3.4 µM; Ki (porcine CYP1A; [3]): 2.5 ± 0.9 µM; reversibility of CYP3A inhibition (effect of a preincubation step) (porcine CYP3A): reversible inhibition; Ki (porcine CYP3A; liver microsomes, pH 7.4, probe 7-benzyloxy-4-trifluoromethylcoumarin (BFC), hepatic microsomes from male pigs): 113 ± 20.8 µM |
| did not alter activity | O=C(O)/C=C/c1ccc(O)cc1 [p-coumaric acid] | did not alter activity | did not alter activity | did not alter activity | – |
| – | O=c1c(O)c(-c2ccc(O)c(O)c2)oc2cc(O)cc(O)c12 [quercetin] | – | – | did not affect | effect on CYP2E1 activity (porcine CYP2E1; [4]): No effect; reversibility of CYP2E1 inhibition (effect of a preincubation step) (porcine CYP2E1; 15 min preincubation with NADPH at 37°C, male pigs): reversible inhibition; Ki (porcine CYP2E1; hepatic microsomes from male pigs, inhibitor 16, 32, 128 μM, p-nitrophenol 0.25-4000 μM): 94.2 ± 13.5 µM; mode of inhibition of CYP1A (porcine CYP1A; [4]): irreversible inhibition; IC50 (porcine CYP1A; pig, liver microsomes, pH 7.4, probe 7-ethoxyresorufin (2 μM), hepatic microsomes from female pigs, with 5 min preincubation with NADPH): 2.5 µM; Ki (porcine CYP1A; pig, liver microsomes, pH 7.4, probe 7-ethoxyresorufin (0.1-4 μM; O-deethylation), hepatic microsomes from male pigs): 0.16 ± 0.03 µM |

| Compound | effect on CYP1A activity (porcine CYP1A) | effect on CYP2A activity (porcine CYP2A) | effect on CYP2E1 activity (porcine CYP2E1; [1]) | effect on CYP3A activity (porcine CYP3A) | also measured |
| --- | --- | --- | --- | --- | --- |
| C[C@@H]1O[C@@H](OC[C@H]2O[C@@H](Oc3c(-c4ccc(O)c(O)c4)oc4cc(O)cc(O)c4c3=O)[C@H](O)[C@@H](O)[C@@H]2O)[C@H](O)[C@H](O)[C@H]1O [rutin] | did not alter activity | did not alter activity | did not alter activity | did not alter activity | – |
